From publication PMC5034696 (Drug Metabolism and Disposition, 2016)

What was measured:
human liver microsomes [1] = type: in vitro ADME; settings: HLM
human liver microsomes [2] = type: in vitro ADME; settings: HLM, p < 0.05; for S,S-OH-bupropion formation higher than control: 1 μM S-bupropion
[3] = in vivo, humans; ref Turpeinen et al., 2005; cited from earlier work
CYP2C19 = settings: vs extensive metabolizers; ref Zhu et al., 2014; cited from earlier work

Compound: CCC1(c2ccccc2)NC(=O)N(Cc2ccccc2)C1=O (single isomer, unassigned; (+)) [N-benzylnirvanol, (+)-N-3-benzylnirvanol]
- inhibition of 4′-OH-bupropion formation from R-bupropion (human liver microsomes [1]; 1 µM R-bupropion): 84%
- inhibition of 4′-OH-bupropion formation from S-bupropion (human liver microsomes [1]; 1 µM S-bupropion): 82%
- R,R-OH-bupropion formation higher than control (human liver microsomes [2]; 1 μM R-bupropion): 11%
- S,S-OH-bupropion formation higher than control (human liver microsomes [2]): 20%

Compound: CC(C)(O)c1ccccc1CC[C@@H](SCC1(CC(=O)O)CC1)c1cccc(/C=C/c2ccc3ccc(Cl)cc3n2)c1 [montelukast]
- S,S-OH-bupropion formation higher than control (human liver microsomes [2]): 15%

Compound: Clc1ccccc1CN1CCc2sccc2C1 [ticlopidine]
- increase in bupropion AUC [3]: 61%

Compound: COC(=O)[C@H](c1ccccc1Cl)N1CCc2sccc2C1 [clopidogrel]
- increase in bupropion AUC [3]: 36%

Compound: CC(NC(C)(C)C)C(=O)c1cccc(Cl)c1 (stereo not shown) [bupropion]
- estimated in vivo isomerization CL (Chiral inversion; scaled to blood volume (5 l)): 2.7 L/h
- estimated in vivo isomerization CL (Chiral inversion; scaled to total body water (42 l)): 22.7 L/h
- increase in bupropion AUC in CYP2C19 intermediate metabolizers (CYP2C19): 13%
